# Experimental data reported in US20180369230A1, “TARGETED SELECTION OF PATIENTS FOR TREATMENT WITH SPECIFIC CORTISTATIN DERIVATIVES” (President and Fellows of Harvard College, priority 2015, published 2018).
# Like-named read-outs stand apart in the source and are kept apart here.
# Experiments:
# Format in all cases: cell-based
# ARH-77 = experiment: Cellular proliferation assay; details: MM/PCL
# Protocol: (§1) All suspension cells were plated (96-well) in triplicate at 5,000-30,000 cells per well for testing (n=3). Viable cell number was estimated after 3, 7 and 10 days by counting viable cells from one vehicle well, generating a cell dilution series, transferring […] per well in duplicate to a 384-well plate, and performing a linear regression to CellTiter-Glo (Promega) response (SPECTRAmax M3, Molecular Devices). Cells from all wells were also fourfold diluted in media and transferred in duplicate for CellTiter-Glo measurement. On days 3 and 7, an equal volume for all wells was split-back with fresh media and compound, such that the resulting cell density for the vehicle well matched the initial seeding density. For days 7 and 10, estimated cell number represents the split-adjusted theoretical cell number. HCT116 were plated (96-well) in triplicate at 250 cells per well. Cells were incubated in the presence of vehicle, 1 μM paclitaxel, or compound. On day 7, CellTiter-Blue (Promega) response was measured and values were normalized to vehicle (100% growth) and paclitaxel (0% growth). For growth assays with inhibitors, n=3 for each concentration with two independent experiments.
# MV4; 11 = experiment: Cellular proliferation assay
# Protocol: as §1
# [1] = system: megakaryocytic cell lines; experiment: Cellular proliferation assay; details: read-out: 50% maximal growth inhibitory concentrations (GI50s); 5 out of 5 megakaryocytic cell lines tested
# Protocol: as §1
# SET-2 = experiment: Cellular proliferation assay
# Protocol: as §1
# ME-1 = experiment: Cellular proliferation assay; details: ME-1 (CBFB-MYH11); 10-day treatment; read-out: G150 after 10 days of treatment
# Protocol: as §1
# NB4 = experiment: Cellular proliferation assay; details: AML/APL, PML-RARA
# Protocol: as §1
# HEL = experiment: Cellular proliferation assay
# Protocol: as §1
# MM1.S = experiment: Cellular proliferation assay; details: MM
# Protocol: as §1
# REH = experiment: Cellular proliferation assay; details: pre B-ALL, ETV6-RUNX1
# Protocol: as §1
# RS4; 11 = experiment: Cellular proliferation assay; details: B-ALL, MLL-AF4
# Protocol: as §1
# MOLM-16 = experiment: Cellular proliferation assay; details: AMkL < 1
# Protocol: as §1
# ALL-SIL = experiment: Cellular proliferation assay; details: T-ALL, TLX1 overexpression
# Protocol: as §1
# MKPL-1 = experiment: Cellular proliferation assay; details: MKPL-1 (RBM6-CSF1R), adult non-DS-AMKL; 10-day treatment; read-out: G150 after 10 days of treatment
# Protocol: as §1
# HCT116 = experiment: Cellular proliferation assay; details: Colorectal, β-catenin
# Protocol: as §1
# JeKo-1 = experiment: Cellular proliferation assay; details: Mantle Cell Lymphoma
# Protocol: as §1
# UKE-1 = experiment: Cellular proliferation assay; details: AML/MPN, JAK2V617F
# Protocol: as §1
# Kasumi-1 = experiment: Cellular proliferation assay; details: AML, RUNX1-RUNX1T1
# Protocol: as §1
# MOLM-14 = experiment: Cellular proliferation assay
# Protocol: as §1
# HL-60 = experiment: Cellular proliferation assay; details: AML/APL
# Protocol: as §1
# TF-1 = experiment: Cellular proliferation assay
# Protocol: as §1
# leukemia cell lines = experiment: Cellular proliferation assay; details: K562 and HEL compared to MEG-01 and SET-2 (BCR-Abl or JAK2V617F)
# Protocol: as §1
# OCI-LY1 = experiment: Cellular proliferation assay; details: DLBCL
# Protocol: as §1
# Jurkat = experiment: Cellular proliferation assay; details: T-ALL
# Protocol: as §1
# CMK-86 = experiment: Cellular proliferation assay
# Protocol: as §1
# K562 = experiment: Cellular proliferation assay
# Protocol: as §1
# MEG-01 = experiment: Cellular proliferation assay
# Protocol: as §1
# SET-2 cells = experiment: SET-2 differentiation assay; details: 50 nM, 3 days, flow cytometry
# Protocol: For the SET-2 differentiation assay, cells were plated (6-well) in triplicate at 150,000 cells per ml for 3-days with 50 nM CA, 50 ng ml^−1 PMA (positive control), or vehicle. Cell pellets were collected at 4° C., washed three times with cold PBS, and stained with anti-CD61-PE (ab91128) or anti-CD41-PerCP (ab134373) and analyzed by flow cytometry. For each experiment, n=3 biological replicates with two independent experiments and one shown (FIG. 3).
substance,measurement,setting,value
Cortistatin A,GI50,ARH-77,16 nM
same,IC50,"MV4; 11; 11 (MLL-AF4), 10-day treatment, read-out: G150 after 10 days of treatment",6 nM
same,GI50,"MV4; 11; 11, AML, MLL-AF4",6 nM
same,IC50,[1],< 10 nM
same,IC50,"SET-2; SET-2 (JAK2V617F), 10-day treatment, read-out: G150 after 10 days of treatment",4 nM
same,GI50,"SET-2; SET-2, AMkL/MPN, JAK2V617F",4 nM
same,"proliferation, theoretical cell number over time","SET-2; SET-2, FIG. 4",inhibits the proliferation
same,IC50,ME-1,1 nM
same,GI50,NB4,> 1000 nM
same,IC50,"HEL; HEL (JAK2V617F), erythroleukemia, 10-day treatment, read-out: G150 after 10 days of treatment",> 1000 nM
same,GI50,"HEL; HEL, AML/Erythroleukemia, JAK2V617F",> 1000 nM
same,GI50,MM1.S,5 nM
same,GI50,REH,1 nM
same,GI50,RS4; 11,3 nM
same,GI50,MOLM-16,< 1 nM
same,GI50,ALL-SIL,2 nM
same,IC50,MKPL-1,1 nM
same,GI50,HCT116,> 1000 nM
same,GI50,JeKo-1,< 1 nM
same,GI50,UKE-1,7 nM
same,GI50,Kasumi-1,95 nM
same,GI50,"MOLM-14; MOLM-14 (MLL-AF9), 10-day treatment, read-out: G150 after 10 days of treatment",5 nM
same,GI50,"MOLM-14; MOLM-14, AML, MLL-AF9, read-out: GI50",5 nM
same,GI50,HL-60,7 nM
same,IC50,"TF-1; TF-1 (EpoR), erythroleukemia, 10-day treatment, read-out: G150 after 10 days of treatment",350 nM
same,GI50,"TF-1; TF-1, AML/Erythroleukemia, EpoR",350 nM
same,"difference in sensitivity, megakaryocytic vs erythroleukemia cell lines containing the same mutations",leukemia cell lines,more than 100 fold
same,GI50,OCI-LY1,37 nM
same,GI50,Jurkat,155 nM
same,IC50,"CMK-86; CMK-86 (GATA1s), pediatric DS-AMKL, 10-day treatment, read-out: G150 after 10 days of treatment",8 nM
same,GI50,"CMK-86; CMK-86, AMkL, GATA1s",8 nM
same,IC50,"K562; K562 (BCR-Abl), erythroleukemia, 10-day treatment, read-out: G150 after 10 days of treatment",> 1000 nM
same,GI50,"K562; K562, CML/Erythroleukemia, BCR-ABL",> 1000 nM
same,IC50,"MEG-01; MEG-01 (BCR-AB1, GAGA1s), adult non-DS-AMKL, 10-day treatment, read-out: G150 after 10 days of treatment",9 nM
same,GI50,"MEG-01; MEG-01, CML/AMkL, BCR-ABL, GATA1s",9 nM
same,"differentiation, megakaryocytic markers CD41 and CD61",SET-2 cells,induces differentiation
